The values that follow are results of earlier work, collected in patent publication US10716774B1, “Pharmaceutical compositions containing isotretinoin with improved dissolution profile and enhanced stability” (Yale Pharmaceuticals LLC, priority 2018, dated 2020).

Each structure is given as a SMILES string.

For the data set the following is noted: after multiple dosing, in man.

Turning to `CC1=C(/C=C/C(C)=C/C=C/C(C)=C/C(=O)O)C(C)(C)CCC1=O` [4-oxo-isotretinoin], the “plasma concentration relative to that of the parent drug” value is on record as “about 4 fold”.
